{
  "source": "ChEMBL document CHEMBL5226302",
  "about": "“Small-Molecule Inhibitors Targeting the Canonical WNT Signaling Pathway for the Treatment of Cancer” (J Med Chem, 2021)",
  "key": {"cells": {"assay": "cells", "conditions": "Homo sapiens, COLO 320DM"}, "[1]": {"assay": "Inhibition of Wnt pathway (unknown origin)", "parameters": "species or system Homo sapiens"}, "[2]": {"molecular_target": "T1, Poly [ADP-ribose] polymerase tankyrase-2 (Homo sapiens, UniProt Q9H2K2)", "T1 sequence (Q9H2K2 whole entry)": "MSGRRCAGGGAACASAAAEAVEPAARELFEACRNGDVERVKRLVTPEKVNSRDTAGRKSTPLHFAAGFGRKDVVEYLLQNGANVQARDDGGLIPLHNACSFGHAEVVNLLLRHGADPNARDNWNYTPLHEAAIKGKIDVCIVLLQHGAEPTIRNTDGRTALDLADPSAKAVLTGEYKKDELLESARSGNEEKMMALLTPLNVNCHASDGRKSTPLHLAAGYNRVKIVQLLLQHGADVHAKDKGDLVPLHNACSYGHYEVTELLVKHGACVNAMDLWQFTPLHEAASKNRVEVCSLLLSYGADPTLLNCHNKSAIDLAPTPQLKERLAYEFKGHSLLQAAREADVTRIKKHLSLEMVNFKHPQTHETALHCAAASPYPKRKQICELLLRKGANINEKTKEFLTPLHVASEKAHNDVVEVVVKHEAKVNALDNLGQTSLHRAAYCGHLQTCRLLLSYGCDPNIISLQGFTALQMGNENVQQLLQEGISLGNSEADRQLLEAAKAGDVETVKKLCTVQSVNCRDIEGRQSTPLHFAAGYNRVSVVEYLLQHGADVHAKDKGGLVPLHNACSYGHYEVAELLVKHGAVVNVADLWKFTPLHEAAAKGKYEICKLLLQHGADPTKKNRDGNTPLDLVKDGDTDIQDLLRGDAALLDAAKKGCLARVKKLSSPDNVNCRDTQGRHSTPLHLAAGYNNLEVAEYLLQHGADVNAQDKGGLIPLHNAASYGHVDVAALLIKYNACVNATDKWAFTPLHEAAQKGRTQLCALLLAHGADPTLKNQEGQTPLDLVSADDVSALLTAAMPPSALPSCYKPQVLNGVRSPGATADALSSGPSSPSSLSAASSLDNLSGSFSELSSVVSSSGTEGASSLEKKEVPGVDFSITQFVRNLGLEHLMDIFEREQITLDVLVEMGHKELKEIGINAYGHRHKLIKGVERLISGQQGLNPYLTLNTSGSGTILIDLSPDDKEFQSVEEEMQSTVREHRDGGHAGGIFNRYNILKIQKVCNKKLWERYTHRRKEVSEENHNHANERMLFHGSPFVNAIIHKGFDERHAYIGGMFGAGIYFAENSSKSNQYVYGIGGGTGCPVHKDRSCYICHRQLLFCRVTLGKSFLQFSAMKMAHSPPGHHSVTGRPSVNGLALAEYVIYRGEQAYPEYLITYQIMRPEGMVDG", "assay": "Binding affinity to human TNKS2 ARC4 assessed as dissociation constant"}, "[3]": {"assay": "Solubility of the compound at pH 7.4", "type": "physicochemical", "conditions": "buffer"}, "[4]": {"assay": "Efflux ratio of apparent permeability in human Caco-2 cells", "type": "ADME, cell-based"}, "[5]": {"molecular_target": "T2, Poly [ADP-ribose] polymerase tankyrase-1 (Homo sapiens, UniProt O95271)", "T2 sequence (O95271 whole entry)": "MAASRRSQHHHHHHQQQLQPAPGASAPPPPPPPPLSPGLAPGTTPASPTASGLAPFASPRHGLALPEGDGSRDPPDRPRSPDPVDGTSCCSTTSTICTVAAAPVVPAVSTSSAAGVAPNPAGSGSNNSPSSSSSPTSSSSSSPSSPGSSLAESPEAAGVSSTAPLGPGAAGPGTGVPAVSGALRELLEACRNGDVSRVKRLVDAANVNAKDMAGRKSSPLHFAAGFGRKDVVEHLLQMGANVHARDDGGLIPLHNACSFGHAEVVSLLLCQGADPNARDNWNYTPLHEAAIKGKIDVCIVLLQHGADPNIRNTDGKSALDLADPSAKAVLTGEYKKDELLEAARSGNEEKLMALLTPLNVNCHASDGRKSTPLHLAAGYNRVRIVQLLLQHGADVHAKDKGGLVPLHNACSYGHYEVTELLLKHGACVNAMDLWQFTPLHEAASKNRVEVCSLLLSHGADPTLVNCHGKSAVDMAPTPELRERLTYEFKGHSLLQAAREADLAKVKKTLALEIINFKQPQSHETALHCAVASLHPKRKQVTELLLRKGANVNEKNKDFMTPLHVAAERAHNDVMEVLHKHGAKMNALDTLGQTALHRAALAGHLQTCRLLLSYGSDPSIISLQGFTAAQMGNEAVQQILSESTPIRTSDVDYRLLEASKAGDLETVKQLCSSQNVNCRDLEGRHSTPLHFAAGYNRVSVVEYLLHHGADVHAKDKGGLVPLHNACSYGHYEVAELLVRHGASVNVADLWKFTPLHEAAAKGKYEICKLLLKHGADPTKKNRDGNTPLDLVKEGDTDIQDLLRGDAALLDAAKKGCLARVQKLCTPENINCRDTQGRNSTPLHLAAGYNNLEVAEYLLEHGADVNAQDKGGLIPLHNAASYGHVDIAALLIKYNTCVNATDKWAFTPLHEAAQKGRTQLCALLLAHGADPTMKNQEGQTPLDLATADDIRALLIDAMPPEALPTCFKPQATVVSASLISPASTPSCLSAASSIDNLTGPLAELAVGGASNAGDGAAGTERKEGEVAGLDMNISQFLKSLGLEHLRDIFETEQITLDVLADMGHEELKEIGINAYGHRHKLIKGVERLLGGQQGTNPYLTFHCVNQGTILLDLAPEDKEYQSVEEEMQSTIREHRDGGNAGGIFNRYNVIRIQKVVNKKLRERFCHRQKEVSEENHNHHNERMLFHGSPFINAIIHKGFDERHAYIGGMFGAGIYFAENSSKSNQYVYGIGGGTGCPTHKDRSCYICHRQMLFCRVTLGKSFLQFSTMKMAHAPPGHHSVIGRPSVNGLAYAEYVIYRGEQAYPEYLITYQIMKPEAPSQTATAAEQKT", "assay": "Inhibition of human TNKS1 (1030 to 1317 residues) measured after 20 hrs"}, "[6]": {"molecular_target": "T1, Poly [ADP-ribose] polymerase tankyrase-2", "assay": "Inhibition of human TNKS2 (873 to 1162 residues) measured after 15 hrs in presence of NAD+ by fluorescence assay"}, "[7]": {"molecular_target": "Poly [ADP-ribose] polymerase 1 (Homo sapiens, UniProt P09874)", "sequence (P09874 whole entry)": "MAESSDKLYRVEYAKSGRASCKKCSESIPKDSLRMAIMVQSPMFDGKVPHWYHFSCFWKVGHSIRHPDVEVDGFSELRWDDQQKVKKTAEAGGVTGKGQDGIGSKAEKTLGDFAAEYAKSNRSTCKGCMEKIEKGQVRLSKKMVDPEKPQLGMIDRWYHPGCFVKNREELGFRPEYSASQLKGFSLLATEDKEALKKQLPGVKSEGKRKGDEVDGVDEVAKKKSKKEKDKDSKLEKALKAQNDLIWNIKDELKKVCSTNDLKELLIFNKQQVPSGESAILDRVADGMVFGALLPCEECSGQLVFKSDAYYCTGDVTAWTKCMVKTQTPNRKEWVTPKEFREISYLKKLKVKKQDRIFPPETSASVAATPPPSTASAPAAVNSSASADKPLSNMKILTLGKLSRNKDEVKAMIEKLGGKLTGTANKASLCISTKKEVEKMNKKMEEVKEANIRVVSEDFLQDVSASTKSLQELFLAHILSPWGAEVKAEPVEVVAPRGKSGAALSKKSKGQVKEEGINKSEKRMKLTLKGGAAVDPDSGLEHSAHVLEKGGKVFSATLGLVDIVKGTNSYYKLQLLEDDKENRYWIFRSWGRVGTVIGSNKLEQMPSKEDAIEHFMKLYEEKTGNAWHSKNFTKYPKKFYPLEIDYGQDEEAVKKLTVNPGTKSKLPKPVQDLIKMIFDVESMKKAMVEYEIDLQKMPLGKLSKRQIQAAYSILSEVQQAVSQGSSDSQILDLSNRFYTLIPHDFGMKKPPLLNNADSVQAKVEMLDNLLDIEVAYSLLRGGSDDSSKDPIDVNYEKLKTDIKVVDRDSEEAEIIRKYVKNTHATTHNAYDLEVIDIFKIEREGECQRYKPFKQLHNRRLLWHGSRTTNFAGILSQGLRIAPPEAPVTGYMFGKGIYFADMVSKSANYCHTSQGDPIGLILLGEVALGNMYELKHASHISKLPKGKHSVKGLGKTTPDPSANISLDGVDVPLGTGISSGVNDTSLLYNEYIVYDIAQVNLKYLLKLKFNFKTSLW", "assay": "Inhibition of human recombinant PARP1 incubated for 30 mins in the presence of NAD"}, "[8]": {"molecular_target": "Poly [ADP-ribose] polymerase 2 (Homo sapiens, UniProt Q9UGN5)", "sequence (Q9UGN5 whole entry)": "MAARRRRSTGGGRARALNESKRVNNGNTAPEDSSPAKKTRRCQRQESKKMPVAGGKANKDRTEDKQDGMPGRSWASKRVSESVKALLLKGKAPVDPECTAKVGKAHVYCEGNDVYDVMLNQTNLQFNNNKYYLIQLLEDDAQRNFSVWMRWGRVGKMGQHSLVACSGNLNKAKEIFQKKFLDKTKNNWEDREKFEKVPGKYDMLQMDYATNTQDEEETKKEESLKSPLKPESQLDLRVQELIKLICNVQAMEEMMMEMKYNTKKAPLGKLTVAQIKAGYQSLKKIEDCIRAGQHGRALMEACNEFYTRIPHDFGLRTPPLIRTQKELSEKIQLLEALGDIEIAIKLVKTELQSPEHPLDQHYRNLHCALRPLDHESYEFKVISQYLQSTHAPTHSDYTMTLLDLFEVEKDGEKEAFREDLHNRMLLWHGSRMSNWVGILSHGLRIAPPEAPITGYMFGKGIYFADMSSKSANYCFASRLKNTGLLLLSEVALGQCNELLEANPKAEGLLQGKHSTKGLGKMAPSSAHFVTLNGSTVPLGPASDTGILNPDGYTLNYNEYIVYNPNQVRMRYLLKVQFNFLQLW", "assay": "Inhibition of PARP2 (unknown origin) using NAD as substrate incubated for 1 min"}, "[9]": {"assay": "Chemical stability of the compound at pH 7.4 measured after 24 hrs", "type": "physicochemical", "conditions": "buffer, read-out: Stability"}, "[10]": {"assay": "Oral bioavailability in mouse at 2.5 mg/kg", "type": "ADME, organism-based", "conditions": "in vivo"}, "[11]": {"assay": "Oral bioavailability in mouse", "type": "ADME, organism-based", "conditions": "in vivo"}, "[12]": {"assay": "Oral bioavailability in rat at 2 mg/kg", "type": "ADME, organism-based", "conditions": "in vivo"}, "[13]": {"assay": "Oral bioavailability in dog", "type": "ADME, organism-based, Canis lupus familiaris", "conditions": "in vivo"}, "[14]": {"assay": "In vivo inhibition of MMTV-WNT1 in mouse model assessed as reduction in tumor growth at 0.3 mg/kg, po administered once daily for 2 weeks", "type": "functional", "conditions": "336 h"}, "[15]": {"assay": "In vivo inhibition of MMTV-WNT1 in mouse model assessed as reduction in tumor growth at 1 mg/kg, po administered once daily for 2 weeks", "type": "functional", "conditions": "336 h"}, "[16]": {"assay": "In vivo inhibition of MMTV-WNT1 in mouse model assessed as reduction in tumor growth at 3 mg/kg, po administered once daily for 2 weeks", "type": "functional", "conditions": "336 h"}, "HeLa": {"tested_on": "HeLa", "assay": "Antiproliferative activity against human HeLa cell line assessed as cell growth inhibition", "type": "functional, cell-based"}, "[17]": {"molecular_target": "T1, Poly [ADP-ribose] polymerase tankyrase-2", "assay": "Binding affinity to TNKS2 (unknown origin) assessed as inhibition constant"}},
  "data": [
    {"smiles": "NS(=O)(=O)c1ccc(NC(=S)N2CCN(C/C=C/c3ccccc3)CC2)cc1", "values": [
      {"measurement": "IC50", "setting": "cells", "result": 2000, "unit": "nM"}
    ]},
    {"smiles": "COc1ccc(-n2c(C(=O)NCC(=O)Nc3nc4ccc(OC)cc4s3)nc3ccccc3c2=O)cc1", "values": [
      {"measurement": "IC50", "setting": "[1]", "result": 58, "unit": "nM"}
    ]},
    {"smiles": "CC(=O)N[C@@H](CCCNC(=N)N)C(=O)N[C@@H](CCC(=O)O)C(=O)N[C@H]1CCCCn2cc(nn2)CCCCCc2cn(nn2)CCCC[C@H](C(=O)N[C@H](CCC(=O)O)C(N)=O)NC(=O)CNC(=O)[C@@H](CC(=O)O)NC(=O)CNC1=O", "values": [
      {"measurement": "Kd", "setting": "[2]", "result": 2800, "unit": "nM"}
    ]},
    {"smiles": "CN1C(=O)C2=C(C1=O)N(CC(=O)Nc1ccc(-c3nccs3)cc1)CCC2", "values": [
      {"measurement": "solubility", "setting": "[3]", "result": 15, "unit": "µg/mL"}
    ]},
    {"smiles": "Cc1cc(-c2ccc(CC(=O)Nc3ccc4c(c3)[nH]c3ccccc34)cc2)ccn1", "values": [
      {"measurement": "IC50", "setting": "[1]", "result": 2.3, "unit": "nM"}
    ]},
    {"smiles": "Cc1cc(N2C[C@@H](C)N[C@@H](C)C2)ncc1-c1ccc(-c2nc3c(ccn3C)c(=O)[nH]2)cc1", "values": [
      {"measurement": "efflux ratio", "setting": "[4]", "result": 2.7}
    ]},
    {"smiles": "Nc1nonc1NC(=O)Cn1c2ccccc2c2nc3nonc3nc21", "values": [
      {"measurement": "IC50", "setting": "cells", "result": 31000, "unit": "nM"}
    ]},
    {"smiles": "COc1cccc2c(=O)[nH]c(-c3ccc(C)cc3)cc12", "values": [
      {"measurement": "IC50", "setting": "[5]", "result": 30, "unit": "nM"},
      {"measurement": "IC50", "setting": "[6]", "result": 5.1, "unit": "nM"},
      {"measurement": "IC50", "setting": "[7]", "result": "> 10000", "unit": "nM"},
      {"measurement": "IC50", "setting": "[8]", "result": "> 10000", "unit": "nM"}
    ]},
    {"smiles": "Cc1cc(-c2ccc(OC(C)C(=O)Nc3ccc(-c4cnccn4)cn3)cc2)ccn1", "note": "(configuration not stated)", "values": [
      {"measurement": "IC50", "setting": "[1]", "result": 0.11, "unit": "nM"},
      {"measurement": "remaining at 24 h", "setting": "[9]", "result": 71, "unit": "%"}
    ]},
    {"smiles": "Cc1ccc2nc(NC(=O)CSc3nc4c(c(=O)n3-c3ccccc3)SCC4)sc2c1", "values": [
      {"measurement": "IC50", "setting": "[1]", "result": 27, "unit": "nM"}
    ]},
    {"smiles": "O=C(O)CCCn1c2ccccc2c2nc3nonc3nc21", "values": [
      {"measurement": "IC50", "setting": "cells", "result": 15000, "unit": "nM"}
    ]},
    {"smiles": "Cc1cc(-c2ccc(CNC(=O)c3ccc4c(c3)[nH]c3ccccc34)cc2F)ccn1", "values": [
      {"measurement": "IC50", "setting": "[1]", "result": 0.5, "unit": "nM"}
    ]},
    {"smiles": "C[C@H](Nc1ccc(-c2ccnn2C)nc1)C(=O)Nc1ccc(-c2cccnc2)cn1", "values": [
      {"measurement": "solubility", "setting": "[3]", "result": 73, "unit": "µg/mL"},
      {"measurement": "bioavailability", "setting": "[10]", "result": 100, "unit": "%"}
    ]},
    {"smiles": "CC(=O)N1CCN(c2ccc(NC(=O)Cc3cnc(-c4ccnc(F)c4)c(C)c3)nc2)CC1", "values": [
      {"measurement": "IC50", "setting": "[1]", "result": 0.8, "unit": "nM"},
      {"measurement": "bioavailability", "setting": "[11]", "result": 72, "unit": "%"},
      {"measurement": "bioavailability", "setting": "[12]", "result": 72, "unit": "%"},
      {"measurement": "bioavailability", "setting": "[13]", "result": 96, "unit": "%"},
      {"measurement": "inhibition in vivo at 0.3 mg/kg", "setting": "[14]", "result": 15, "unit": "%"},
      {"measurement": "inhibition in vivo at 1 mg/kg", "setting": "[15]", "result": 74, "unit": "%"},
      {"measurement": "inhibition in vivo at 3 mg/kg", "setting": "[16]", "result": 84, "unit": "%"}
    ]},
    {"smiles": "O=C(CSc1nc2c(c(=O)n1-c1ccccc1)SCC2)Nc1ccc(-c2ccccc2)cn1", "values": [
      {"measurement": "EC50", "setting": "HeLa", "result": 0.5, "unit": "nM"}
    ]},
    {"smiles": "CCc1ccc(OCC(=O)Nc2sc(C)c(C)c2C(N)=O)c(F)c1", "values": [
      {"measurement": "Ki", "setting": "[17]", "result": 27900, "unit": "nM"}
    ]}
  ]
}
